Assay results reported in ChEMBL document CHEMBL5360657, “Discovery of the TLR7/8 Antagonist MHV370 for Treatment of Systemic Autoimmune Diseases” (ACS Med Chem Lett, 2023).

Experiments:
[1] = Metabolic stability in mouse liver microsomes assessed as intrinsic clearance; format: ADME, Microsome; settings: read-out: CLH
[2] = Metabolic stability in human liver microsomes assessed as intrinsic clearance; format: ADME, Microsome; settings: read-out: CLH
Toll-like receptor 9 = target: T1, Toll-like receptor 9 (Homo sapiens, UniProt Q9NR96); assay: Antagonist activity at TLR9 in human PBMC cells assessed as reduction in IFN alpha measured after 20 hrs by AlphaLISA assay; format: cell-based
T1 sequence (Q9NR96 whole entry): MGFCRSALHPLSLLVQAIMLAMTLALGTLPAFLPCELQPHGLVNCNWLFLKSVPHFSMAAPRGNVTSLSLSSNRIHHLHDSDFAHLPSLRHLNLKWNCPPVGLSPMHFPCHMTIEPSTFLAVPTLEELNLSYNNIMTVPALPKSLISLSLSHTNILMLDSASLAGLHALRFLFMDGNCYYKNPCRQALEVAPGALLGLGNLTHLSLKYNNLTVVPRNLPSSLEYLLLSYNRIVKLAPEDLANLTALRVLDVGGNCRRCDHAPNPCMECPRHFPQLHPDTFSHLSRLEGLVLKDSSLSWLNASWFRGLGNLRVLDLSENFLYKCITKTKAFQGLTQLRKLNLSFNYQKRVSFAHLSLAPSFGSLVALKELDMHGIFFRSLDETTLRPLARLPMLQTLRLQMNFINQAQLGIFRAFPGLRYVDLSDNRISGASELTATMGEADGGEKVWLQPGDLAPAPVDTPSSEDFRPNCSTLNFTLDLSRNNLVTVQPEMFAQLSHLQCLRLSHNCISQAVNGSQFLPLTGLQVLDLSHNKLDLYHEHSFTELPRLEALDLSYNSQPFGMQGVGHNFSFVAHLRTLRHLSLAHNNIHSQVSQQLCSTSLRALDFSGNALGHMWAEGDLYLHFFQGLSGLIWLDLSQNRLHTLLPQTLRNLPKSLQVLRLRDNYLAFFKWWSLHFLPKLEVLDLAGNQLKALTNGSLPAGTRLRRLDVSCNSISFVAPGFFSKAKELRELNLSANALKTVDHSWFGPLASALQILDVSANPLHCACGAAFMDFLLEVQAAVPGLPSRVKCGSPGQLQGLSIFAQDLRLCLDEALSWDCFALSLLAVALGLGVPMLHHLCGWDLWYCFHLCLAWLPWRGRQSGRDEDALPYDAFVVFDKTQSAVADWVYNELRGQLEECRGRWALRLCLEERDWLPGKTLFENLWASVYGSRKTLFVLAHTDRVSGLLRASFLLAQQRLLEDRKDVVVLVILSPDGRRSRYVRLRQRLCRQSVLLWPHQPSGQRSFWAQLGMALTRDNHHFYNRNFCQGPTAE

[3] = Permeability of the compound by PAMPA; format: ADME
Toll-like receptor 7 = target: T2, Toll-like receptor 7 (Homo sapiens, UniProt Q9NYK1); assay: Antagonist activity at TLR7 in human PBMC cells assessed as reduction in IFN alpha measured after 20 hrs by AlphaLISA assay; format: cell-based
T2 sequence (Q9NYK1 whole entry): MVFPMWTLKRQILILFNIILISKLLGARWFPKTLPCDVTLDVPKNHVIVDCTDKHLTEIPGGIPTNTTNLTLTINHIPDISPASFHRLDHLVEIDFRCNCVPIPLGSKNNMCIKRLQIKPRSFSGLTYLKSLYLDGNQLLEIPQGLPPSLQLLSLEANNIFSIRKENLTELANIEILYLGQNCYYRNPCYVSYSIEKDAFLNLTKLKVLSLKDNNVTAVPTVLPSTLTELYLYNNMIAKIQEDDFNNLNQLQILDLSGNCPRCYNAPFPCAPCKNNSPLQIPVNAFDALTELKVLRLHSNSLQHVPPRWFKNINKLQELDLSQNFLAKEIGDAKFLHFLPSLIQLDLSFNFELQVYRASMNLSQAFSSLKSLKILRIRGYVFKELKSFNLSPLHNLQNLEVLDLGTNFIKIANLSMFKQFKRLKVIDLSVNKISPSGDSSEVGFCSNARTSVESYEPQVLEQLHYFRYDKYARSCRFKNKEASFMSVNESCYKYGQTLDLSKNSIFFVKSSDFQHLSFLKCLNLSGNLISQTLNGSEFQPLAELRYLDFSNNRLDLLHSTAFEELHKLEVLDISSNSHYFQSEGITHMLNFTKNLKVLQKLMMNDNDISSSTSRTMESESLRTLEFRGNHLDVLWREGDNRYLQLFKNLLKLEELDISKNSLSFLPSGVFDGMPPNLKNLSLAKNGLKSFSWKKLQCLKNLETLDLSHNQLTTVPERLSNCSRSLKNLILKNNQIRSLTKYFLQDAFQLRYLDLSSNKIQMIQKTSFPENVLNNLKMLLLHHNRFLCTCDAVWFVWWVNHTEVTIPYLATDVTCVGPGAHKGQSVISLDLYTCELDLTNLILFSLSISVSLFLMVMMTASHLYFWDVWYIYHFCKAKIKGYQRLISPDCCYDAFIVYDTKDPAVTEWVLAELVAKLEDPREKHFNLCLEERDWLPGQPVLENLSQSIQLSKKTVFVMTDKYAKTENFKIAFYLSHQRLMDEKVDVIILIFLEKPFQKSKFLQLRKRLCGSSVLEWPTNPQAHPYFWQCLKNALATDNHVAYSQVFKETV

[4] = Metabolic stability in rat liver microsomes assessed as intrinsic clearance; format: ADME, Microsome; settings: read-out: CLH
Cytochrome P450 3A4 [5] = target: T3, Cytochrome P450 3A4 (Homo sapiens, UniProt P08684); assay: Inhibition of CYP3A4 (unknown origin); format: ADME
Toll-like receptor 8 = target: T4, Toll-like receptor 8 (Homo sapiens, UniProt Q9NR97); assay: Antagonist activity at TLR8 in human PBMC cells […] assessed as reduction in IL-6 level measured after 20 hrs by AlphaLISA assay; format: cell-based
T4 sequence (Q9NR97 whole entry): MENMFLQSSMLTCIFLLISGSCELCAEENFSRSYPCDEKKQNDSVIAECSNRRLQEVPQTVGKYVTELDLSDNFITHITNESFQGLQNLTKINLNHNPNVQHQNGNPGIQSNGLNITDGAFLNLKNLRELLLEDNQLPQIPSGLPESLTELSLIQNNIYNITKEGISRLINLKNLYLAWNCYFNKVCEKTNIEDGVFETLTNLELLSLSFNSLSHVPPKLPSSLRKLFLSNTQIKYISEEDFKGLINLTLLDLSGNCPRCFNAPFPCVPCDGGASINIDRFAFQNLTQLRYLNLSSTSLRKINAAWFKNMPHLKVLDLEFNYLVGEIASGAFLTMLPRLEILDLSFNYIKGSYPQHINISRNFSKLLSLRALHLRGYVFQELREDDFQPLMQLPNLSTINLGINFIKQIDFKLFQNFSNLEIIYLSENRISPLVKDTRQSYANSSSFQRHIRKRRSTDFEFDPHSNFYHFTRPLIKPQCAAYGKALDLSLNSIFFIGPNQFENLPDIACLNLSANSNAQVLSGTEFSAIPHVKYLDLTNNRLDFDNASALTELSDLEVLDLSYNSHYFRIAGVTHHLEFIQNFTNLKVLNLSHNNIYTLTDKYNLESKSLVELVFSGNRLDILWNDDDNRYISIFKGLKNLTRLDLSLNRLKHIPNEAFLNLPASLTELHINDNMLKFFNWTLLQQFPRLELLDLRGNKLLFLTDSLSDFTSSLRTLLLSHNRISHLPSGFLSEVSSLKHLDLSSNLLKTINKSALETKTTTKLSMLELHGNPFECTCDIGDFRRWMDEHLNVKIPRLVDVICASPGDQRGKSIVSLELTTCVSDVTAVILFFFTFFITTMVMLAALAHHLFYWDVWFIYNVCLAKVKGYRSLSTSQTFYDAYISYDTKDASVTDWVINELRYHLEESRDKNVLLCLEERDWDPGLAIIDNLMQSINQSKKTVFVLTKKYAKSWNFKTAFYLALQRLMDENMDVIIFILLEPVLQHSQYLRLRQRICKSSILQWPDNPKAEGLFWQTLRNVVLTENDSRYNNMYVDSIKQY

[6] = target: Voltage-gated inwardly rectifying potassium channel KCNH2 (Homo sapiens, UniProt Q12809); assay: Displacement of [3H]-dofetilite from human ERG (unknown origin); format: toxicity
Cytochrome P450 3A4 [7] = target: T3, Cytochrome P450 3A4; assay: Time dependent inhibition of CYP3A4 (unknown origin) assessed as Kobs; format: ADME; further: test concentration or dose not given here
[8] = Solubility of the compound; format: physicochemical

T3 sequence (P08684 whole entry): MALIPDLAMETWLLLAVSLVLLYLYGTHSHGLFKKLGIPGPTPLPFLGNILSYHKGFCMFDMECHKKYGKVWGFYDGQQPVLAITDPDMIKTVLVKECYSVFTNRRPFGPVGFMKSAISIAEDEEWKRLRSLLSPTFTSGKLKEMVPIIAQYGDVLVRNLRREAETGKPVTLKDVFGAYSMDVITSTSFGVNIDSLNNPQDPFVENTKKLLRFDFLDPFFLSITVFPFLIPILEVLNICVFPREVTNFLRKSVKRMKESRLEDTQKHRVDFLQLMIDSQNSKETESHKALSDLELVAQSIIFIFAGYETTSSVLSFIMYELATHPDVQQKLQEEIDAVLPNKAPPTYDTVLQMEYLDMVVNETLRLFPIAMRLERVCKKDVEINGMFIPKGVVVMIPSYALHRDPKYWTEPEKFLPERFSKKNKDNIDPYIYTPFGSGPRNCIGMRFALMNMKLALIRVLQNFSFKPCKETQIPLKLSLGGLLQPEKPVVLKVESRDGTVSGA
Voltage-gated inwardly rectifying potassium channel KCNH2, sequence (Q12809 whole entry): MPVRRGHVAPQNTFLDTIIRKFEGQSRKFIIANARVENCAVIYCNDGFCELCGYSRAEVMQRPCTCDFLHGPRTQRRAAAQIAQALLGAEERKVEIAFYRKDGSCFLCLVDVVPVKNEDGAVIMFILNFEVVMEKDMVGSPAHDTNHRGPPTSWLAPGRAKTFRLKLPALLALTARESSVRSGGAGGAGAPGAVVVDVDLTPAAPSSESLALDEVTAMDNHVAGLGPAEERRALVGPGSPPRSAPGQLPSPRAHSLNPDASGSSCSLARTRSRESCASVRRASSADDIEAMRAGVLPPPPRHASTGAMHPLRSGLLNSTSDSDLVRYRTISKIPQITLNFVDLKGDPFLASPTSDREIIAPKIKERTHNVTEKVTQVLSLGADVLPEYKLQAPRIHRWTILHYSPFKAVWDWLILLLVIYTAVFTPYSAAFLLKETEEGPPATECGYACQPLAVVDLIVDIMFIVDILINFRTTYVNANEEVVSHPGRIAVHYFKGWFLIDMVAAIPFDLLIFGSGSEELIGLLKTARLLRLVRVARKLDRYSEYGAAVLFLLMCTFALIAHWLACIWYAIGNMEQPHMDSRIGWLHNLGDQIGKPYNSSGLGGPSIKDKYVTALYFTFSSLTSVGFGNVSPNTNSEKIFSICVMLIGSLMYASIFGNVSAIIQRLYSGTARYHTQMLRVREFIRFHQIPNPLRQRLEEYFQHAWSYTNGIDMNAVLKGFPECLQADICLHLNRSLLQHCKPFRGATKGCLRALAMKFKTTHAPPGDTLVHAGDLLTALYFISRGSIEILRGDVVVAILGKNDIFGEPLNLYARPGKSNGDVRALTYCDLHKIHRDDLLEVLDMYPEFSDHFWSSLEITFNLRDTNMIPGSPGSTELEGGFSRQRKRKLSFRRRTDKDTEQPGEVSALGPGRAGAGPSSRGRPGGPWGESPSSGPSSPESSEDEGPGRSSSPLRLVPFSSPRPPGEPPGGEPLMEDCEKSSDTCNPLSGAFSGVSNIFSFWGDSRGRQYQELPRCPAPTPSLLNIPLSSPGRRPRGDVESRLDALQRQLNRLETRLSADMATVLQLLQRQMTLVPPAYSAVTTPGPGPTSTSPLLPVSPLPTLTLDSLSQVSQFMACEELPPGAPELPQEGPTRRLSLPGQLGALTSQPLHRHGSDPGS

With `Cc1cc(N2CCc3c(c(C)nn3CC34CCC(NC(=O)CN5CCCC5)(CC3)CC4)C2)c2cnn(C)c2n1` the microsomal CLint [1] was 531 µL/min/mg, the microsomal CLint [2] was 329 µL/min/mg and the IC50 (Toll-like receptor 9) was 1200 nM. For the same compound, the “log(permeability)” value [3] was -4.1, the IC50 (Toll-like receptor 7) was 4 nM and the microsomal CLint [4] was under 15 µL/min/mg.

With `Cc1cc(N2CCc3c(c(C)nn3CC34CCC(NC(=O)[C@@H]5CNCCO5)(CC3)CC4)C2)c2cnn(C)c2n1` the microsomal CLint [1] was 93 µL/min/mg, the microsomal CLint [2] was 135 µL/min/mg and the IC50 (Toll-like receptor 9) was 190 nM. The “log(permeability)” value [3] was -5.2, the IC50 (Toll-like receptor 7) was 2 nM and the IC50 (Cytochrome P450 3A4 [5]) was 5500 nM. It also gave a microsomal CLint [4] of 24 µL/min/mg and an IC50 (Toll-like receptor 8) of 67 nM.

Work on `Cc1cc(N2CCc3c(c(C)nn3CC34CCC(N5CCN(C)CC5=O)(CC3)CC4)C2)c2cnn(C)c2n1` yielded a microsomal CLint [1] of 251 µL/min/mg, a microsomal CLint [2] of 71 µL/min/mg and an IC50 (Toll-like receptor 9) of 5500 nM. For the same compound, the “log(permeability)” value [3] was -4.3, the IC50 [6] was over 30000 nM and the IC50 (Toll-like receptor 7) was 19 nM. It also gave an IC50 (Cytochrome P450 3A4 [5]) of over 50000 nM and a microsomal CLint [4] of 50 µL/min/mg.

With `Cc1cc(N2CCc3c(c(C)nn3CC34CCC(NC(=O)CN(C)C)(CC3)CC4)C2)c2cnn(C)c2n1` the microsomal CLint [1] was 104 µL/min/mg, the microsomal CLint [2] was 147 µL/min/mg and the IC50 (Toll-like receptor 9) was 730 nM. The “log(permeability)” value [3] was -4.3, the IC50 [6] was over 30000 nM and the IC50 (Toll-like receptor 7) was 6 nM. The IC50 (Cytochrome P450 3A4 [5]) was over 50000 nM, the microsomal CLint [4] was 33 µL/min/mg and the IC50 (Toll-like receptor 8) was 25 nM. For the same compound, the Kobs (Cytochrome P450 3A4 [7]) was 0.006 min⁻¹.

`Cc1cc(N2CCc3c(c(C)nn3CC34CCC(N5CCC5)(CC3)CC4)C2)c2cnn(C)c2n1` showed a microsomal CLint [1] of 65 µL/min/mg, a microsomal CLint [2] of 96 µL/min/mg and an IC50 (Toll-like receptor 9) of 530 nM. For the same compound, the “log(permeability)” value [3] was -4.7, the IC50 [6] was over 30000 nM and the IC50 (Toll-like receptor 7) was 5 nM. The IC50 (Cytochrome P450 3A4 [5]) was over 50000 nM, the microsomal CLint [4] was 30 µL/min/mg and the IC50 (Toll-like receptor 8) was 120 nM. It also gave a Kobs (Cytochrome P450 3A4 [7]) of 0.015 min⁻¹.

`Cc1cc(N2CCc3c(c(C)nn3CC34CCC(NCC(=O)N(C)C)(CC3)CC4)C2)c2cnn(C)c2n1` showed a microsomal CLint [1] of under 15 µL/min/mg, a microsomal CLint [2] of 31 µL/min/mg and an IC50 (Toll-like receptor 9) of 3000 nM. The “log(permeability)” value [3] was -5.4, the IC50 (Toll-like receptor 7) was 41 nM and the microsomal CLint [4] was 29 µL/min/mg. The IC50 (Toll-like receptor 8) was 190 nM.

`Cc1cc(N2CCc3c(c(C)nn3CC34CCC(N5CCOCC5)(CC3)CC4)C2)c2cnn(C)c2n1` gave a microsomal CLint [1] of 246 µL/min/mg, a microsomal CLint [2] of 130 µL/min/mg and an IC50 (Toll-like receptor 9) of 2100 nM. For the same compound, the “log(permeability)” value [3] was -4.1, the IC50 [6] was over 30000 nM and the IC50 (Cytochrome P450 3A4 [5]) was over 50000 nM. It also gave a microsomal CLint [4] of 175 µL/min/mg, an IC50 (Toll-like receptor 8) of 30 nM and a solubility [8] of over 175 µM. It also gave a Kobs (Cytochrome P450 3A4 [7]) of 0.038 min⁻¹.
